Measurements as given in patent US9096524B2, “Anthelmintic agents and their use” (Intervet International B.V., priority 2009, dated 2015).
Read-outs that look alike come from different tables or passages of the source.

Tested on: A. galli (intestinal roundworm of chicken) larval stage 3; O. dentatum (nodular worm of swine) larval stages 3 and 4
Experiment: Activity against Ascaridia galli and Oesophagostomum dentatum larvae in vitro (minimum effective concentration)
Assay type: cell-based
[1] = in vitro, one or more of A. galli L3, O. dentatum L3, L4, threshold 7 μM, read-out: MEC (minimum effective concentration) against one or more of the tested nematodes
[2] = in vitro, one or more of A. galli L3, O. dentatum L3, L4, threshold 1 μM, read-out: MEC (minimum effective concentration) against one or more of the tested nematodes
[3] = in vitro, two or more of A. galli L3, O. dentatum L3, L4, threshold 1 μM, read-out: MEC (minimum effective concentration) against two or more of the tested nematodes
[4] = read-out: MEC (minimum effective concentration) against one or more of the tested nematodes, in vitro, one or more of A. galli L3, O. dentatum L3, L4, threshold 1 μM
[5] = read-out: MEC (minimum effective concentration) against one or more of the tested nematodes, in vitro, one or more of A. galli L3, O. dentatum L3, L4, threshold 7 μM
[6] = read-out: MEC (minimum effective concentration) against two or more of the tested nematodes, in vitro, two or more of A. galli L3, O. dentatum L3, L4, threshold 1 μM

Structure (SMILES) | minimal effective concentration [2] [µM] | minimal effective concentration [3] [µM] | further results
O=C(CCCN1CC2CN(c3ccc(C(F)(F)F)cc3)CC2C1)N1CC[C@H](Nc2ccc([N+](=O)[O-])c(C(F)(F)F)c2)C1 (stereo partly shown) [Example 743] | – | – | minimal effective concentration [1]: < 7 µM
O=C(CCCN1CCN(c2ccc(F)cc2)CC1)N1CCC(Oc2ccc([N+](=O)[O-])c(C(F)(F)F)c2)CC1 [Example 261] | < 1 | – | –
O=C(CCN1CCN(c2ccc(Cl)cc2)CC1)N1CCC(Oc2ccc([N+](=O)[O-])c(C(F)(F)F)c2)CC1 [Example 421] | – | < 1 | –
CC(C)(C)c1ccc(N2CCN(CCC(=O)N3CC[C@@H](Nc4ccc([N+](=O)[O-])c(C(F)(F)F)c4)C3)CC2)cc1 [Example 790] | < 1 | – | –
CC(CN1CCN(c2ccc(C(C)(C)C)cc2)CC1)C(=O)N1CCC(Nc2ccc([N+](=O)[O-])c(C(F)(F)F)c2)CC1 (stereo not shown) [Example 130, 3-[4-(4-tert-butyl-phenyl)-piperazin-1-yl]-2-methyl-1-[4-(4-nitro-3-trifluoromethyl-phenylamino)-piperidin-1-yl]-propan-1-one] | – | – | minimal effective concentration [4]: < 1 µM; minimal effective concentration [5]: < 7 µM; minimal effective concentration [6]: < 1 µM
O=C(CCN1CCC(Nc2ccc([N+](=O)[O-])c(C(F)(F)F)c2)CC1)N1CCN(c2ccc(Cl)cc2)CC1 [Example 199] | < 1 | – | –
COc1cc(NC2CCN(C(=O)CCN3CCC(c4ccc(C(C)(C)C)cc4)CC3)CC2)ccc1[N+](=O)[O-] [Example 380] | < 1 | – | minimal effective concentration [1]: < 7 µM
CC(C)(C)c1ccc(N2CCC(CCC(=O)N3CCC(Nc4ccc([N+](=O)[O-])c(C(F)(F)F)c4)CC3)CC2)cc1 [Example 147, 3-[1-(4-tert-butyl-phenyl)-piperidin-4-yl]-1-[4-(4-nitro-3-trifluoromethyl-phenylamino)-piperidin-1-yl]-propan-1-one] | – | – | minimal effective concentration [4]: < 1 µM; minimal effective concentration [5]: < 7 µM; minimal effective concentration [6]: < 1 µM
CC(C)(C)c1ccc(N2CCN(CCC(=O)N3CCC(Nc4cccc(C#N)c4)CC3)CC2)cc1 [Example 351] | < 1 | – | –
CS(=O)(=O)c1ccc(NC2CCN(C(=O)CCCN3CCN(c4ccc(Cl)cc4)CC3)CC2)cc1C(F)(F)F [Example 343] | < 1 | – | –
O=C(COC1CCN(c2ccc([N+](=O)[O-])c(C(F)(F)F)c2)CC1)N1CCN(c2ccc(Cl)cc2)CC1 [Example 179] | < 1 | – | –
O=[N+]([O-])c1ccc(NC2CCN(S(=O)(=O)CCN3CCN(C4CCCCC4)CC3)CC2)cc1C(F)(F)F [Example 248] | – | < 1 | –
O=C(CCN1CCCN(c2ccc(C(F)(F)F)cc2)CC1)N1CC[C@H](Nc2ccc([N+](=O)[O-])c(C(F)(F)F)c2)C1 [Example 725] | – | < 1 | –
O=C(CCC1CCN(c2ccc(C(F)(F)F)cc2)CC1)N1CC[C@@H](Nc2ccc([N+](=O)[O-])c(C(F)(F)F)c2)C1 [Example 775] | < 1 | – | –
CN(C)S(=O)(=O)c1ccc(NC2CCN(C(=O)CCCN3CCN(c4ccc(Cl)cc4)CC3)CC2)cc1C(F)(F)F [Example 349] | – | – | minimal effective concentration [1]: < 7 µM
N#Cc1ccc(NC2CCN(C(=O)CCCN3CCCN(c4ccc(Cl)cc4)CC3)CC2)cc1C(F)(F)F [Example 757] | – | – | minimal effective concentration [6]: < 1 µM
O=C(CCCN1CCN(c2ccc(C(F)(F)F)cc2)CC1)N1CCC(Nc2ccc(Cl)cc2)CC1 [Example 273] | – | – | minimal effective concentration [6]: < 1 µM
CC(C)(CN1CCN(c2ccc(C(F)(F)F)cc2)CC1)C(=O)N1CCC(Nc2ccc([N+](=O)[O-])c(C(F)(F)F)c2)CC1 [Example 585] | – | < 1 | –
O=C(CC(=O)N1CCN(c2ccc(C(F)(F)F)cc2)CC1)N1CCC(Nc2ccc([N+](=O)[O-])c(C(F)(F)F)c2)CC1 [Example 78, 1-[4-(4-nitro-3-trifluoromethyl-phenylamino)-piperidin-1-yl]-3-[4-(4-trifluoromethyl-phenyl)-piperazin-1-yl]-propane-1,3-dione] | – | – | minimal effective concentration [4]: < 1 µM; minimal effective concentration [5]: < 7 µM; minimal effective concentration [6]: < 1 µM
O=C(CCN1CCN(c2ccc(C(F)(F)F)cn2)CC1)N1CCC(Nc2ccc([N+](=O)[O-])c(C(F)(F)F)c2)CC1 [Example 255] | – | < 1 | –
CC(C)(C)c1ccc(N2CCN(CCCC(=O)N3CCCN(c4ccc([N+](=O)[O-])c(C(F)(F)F)c4)CC3)CC2)cc1 [Example 1003] | – | – | minimal effective concentration [1]: < 7 µM
CCOc1cc(OC2CCN(C(=O)CCN3CCN(c4ccc(OCc5ccc(C(F)(F)F)cc5)cc4)CC3)CC2)ccc1[N+](=O)[O-] [Example 497] | – | – | minimal effective concentration [1]: < 7 µM
CCCCC(=O)N1CCC(OCC(=O)N2CCC(Nc3ccc([N+](=O)[O-])c(C(F)(F)F)c3)CC2)CC1 [Example 291] | < 1 | – | –

Structure (SMILES) | minimal effective concentration [2] [µM] | minimal effective concentration [3] [µM] | further results
COc1ccc(N2CCN(CCC(=O)N3CCC(Nc4ccc([N+](=O)[O-])c(C(F)(F)F)c4)CC3)CC2)cc1 [Example 254] | – | < 1 | –
O=C(CCCN1CCN(c2nnc(C(F)(F)F)s2)CC1)N1CCC(Nc2ccc([N+](=O)[O-])c(C(F)(F)F)c2)CC1 [Example 153, 1-[4-(4-nitro-3-trifluoromethyl-phenylamino)-piperidin-1-yl]-4-[4-(5-trifluoromethyl-1,3,4-thiadiazol-2-yl)-piperazin-1-yl]-butan-1-one] | – | – | minimal effective concentration [4]: < 1 µM; minimal effective concentration [5]: < 7 µM; minimal effective concentration [6]: < 1 µM
CC(C)COc1cc(OC2CCN(C(=O)CCN3CCN(c4ccc(Cl)cc4)CC3)CC2)ccc1[N+](=O)[O-] [Example 512] | – | – | minimal effective concentration [1]: < 7 µM
O=C(CCN1CCN(c2ccc(Cl)cc2)CC1)N1CC[C@@H](Nc2ccc([N+](=O)[O-])c(C(F)(F)F)c2)C1 [Example 789] | < 1 | < 1 | –
COc1ccc(N2CCN(CCCC(=O)N3CCC(Nc4ccc(C#N)c(C(F)(F)F)c4)CC3)CC2)cn1 [Example 760] | – | – | minimal effective concentration [6]: < 1 µM
O=C(CCCN1CCN(c2ccc(Cl)cc2)CC1)N1CCC(Nc2ccc([N+](=O)[O-])cn2)CC1 [Example 559] | – | < 1 | –
Cc1nc(NC2CCN(C(=O)CCCN3CCN(c4ccc(C(F)(F)F)cc4)CC3)CC2)ccc1[N+](=O)[O-] [Example 101, 1-[4-(6-methyl-5-nitro-pyridin-2-ylamino)-piperidin-1-yl]-4-[4-(4-trifluoromethyl-phenyl)-piperazin-1-yl]-butan-1-one] | – | – | minimal effective concentration [4]: < 1 µM; minimal effective concentration [5]: < 7 µM; minimal effective concentration [6]: < 1 µM
CSc1ccc(NC2CCN(C(=O)CCCN3CCN(c4ccc(C(C)(C)C)cc4)CC3)CC2)cc1C(F)(F)F [Example 317] | – | – | minimal effective concentration [6]: < 1 µM
O=C(CCN1CCC(c2cccc(C(F)(F)F)c2)CC1)N1CCC(Nc2ccc([N+](=O)[O-])c(C(F)(F)F)c2)CC1 [Example 212] | < 1 | – | –
N#Cc1ccc(N2CCCN(C(=O)CCCN3CCN(c4ccc(C(F)(F)F)cc4)CC3)CC2)cc1C(F)(F)F [Example 1008] | < 1 | – | –
O=[N+]([O-])c1ccc(OC2CCN(C(=S)CCN3CCC(c4ccc(C(F)(F)F)cc4)CC3)CC2)cc1C(F)(F)F [Example 697] | < 1 | < 1 | –
O=C(CCCC1CCN(c2ccc(Cl)cc2)CC1)N1CC[C@H](Nc2ccc([N+](=O)[O-])c(C(F)(F)F)c2)C1 [Example 734] | – | – | minimal effective concentration [1]: < 7 µM
O=C(CC(=O)N1CCN(c2ccc(Cl)c(C(F)(F)F)c2)CC1)N1CCC(Nc2ccc([N+](=O)[O-])c(C(F)(F)F)c2)CC1 [Example 202] | – | < 1 | –
CC(C)(C)c1ccc(N2CCN(CCC(=O)N3CCC(Nc4ccc([N+](=O)[O-])cn4)CC3)CC2)cc1 [Example 551] | < 1 | < 1 | –
COc1ccc(N2CCN(CCC(=O)N3CCC(Oc4ccc([N+](=O)[O-])c(OCC(C)C)c4)CC3)CC2)cc1 [Example 516] | < 1 | – | minimal effective concentration [1]: < 7 µM
O=C(CCN1CCN(c2ccc(C(F)(F)F)cc2)CC1)N1CCCN(c2ccc(SC(F)(F)F)cc2)CC1 [Example 1017] | < 1 | – | –
CN(CC1CCN(c2ccc(Cl)cc2)CC1)C(=S)N1CCC(Nc2ccc([N+](=O)[O-])c(C(F)(F)F)c2)CC1 [Example 676] | – | < 1 | –
O=C(CCCN1CC2CN(c3ccc(Cl)cc3)CC2C1)N1CCC(Nc2ccc([N+](=O)[O-])c(C(F)(F)F)c2)CC1 (stereo not shown) [Example 716] | < 1 | < 1 | –
O=C(CCC1CCN(c2ccccc2)CC1)N1CCC(Nc2ccc([N+](=O)[O-])c(C(F)(F)F)c2)CC1 [Example 216] | < 1 | < 1 | –
COc1cc(OC2CCN(C(=O)CCN3CCN(c4ccc(Cl)cc4F)CC3)CC2)ccc1[N+](=O)[O-] [Example 476] | – | – | minimal effective concentration [1]: < 7 µM
C[S+]([O-])c1ccc(NC2CCN(C(=O)CCN3CCN(c4ccc(C(C)(C)C)cc4)CC3)CC2)cc1C(F)(F)F (stereo not shown) [Example 299] | – | < 1 | –
N#Cc1ccc(NC2CCN(C(=O)CCN3CCN(c4ccc(Cl)cn4)CC3)CC2)cc1C(F)(F)F [Example 764] | – | – | minimal effective concentration [6]: < 1 µM
O=C(CCCN1CC2CN(c3ccc(C(F)(F)F)cc3)CC2C1)N1CCC(Nc2ccc([N+](=O)[O-])c(C(F)(F)F)c2)CC1 (stereo not shown) [Example 715] | < 1 | < 1 | –
